Measured values: PubChem BioAssay AID2305 (GlaxoSmithKline (GSK), 2010)
pIC50: −log10 of the molar value.

Test system: P. falciparum 3D7 growth, pLDH absorbance
Test: P. falciparum 3D7 growth inhibition, dose response, strain 3D7 (AID 2305)

SMILES | pIC50
COC(=O)C(C)(C)Cc1c(SC(C)(C)C)c2cc(C(C)C)ccc2n1Cc1ccc(Cl)cc1 | 6.07
CCC[C@@H]([C@@H](CC1CCCCC1)C(=O)NC(C(=O)Nc1nccs1)C(CC)c1ccccc1)N(O)C=O (stereo partly specified) | 6.16
Cc1cc(N)c2cc(NC(=O)c3ccc4ccccc4c3)ccc2n1 | 6.60
CC(=O)c1c(Cc2ccccc2Cl)c[nH]c1C | 6.07
CN(C)CCOc1ccc(-c2cc(-c3ccncc3)c(-c3ccc(Cl)c(O)c3)[nH]2)cc1 | 6.66
COc1ccc(C(=O)NCC(C)(C)c2nc(-c3ccc(Cl)c(O)c3)c(-c3ccncc3)[nH]2)cc1OCCN(C(C)C)C(C)C | 6.19
CN(C)CCOc1ccc(NC(=O)NC(C)(C)c2nc(-c3ccc(Cl)c(O)c3)c(-c3ccncc3)[nH]2)cc1 | 6.96
CCc1cn2c3c(cc(C(=O)N[C@@H](Cc4cccc(Cl)c4)[C@H](O)CNC4CCOCC4)cc13)N(C)S(=O)(=O)CC2 | 7.40
COc1ccccc1C(=O)C1CCCN(C(=O)c2ccccc2C(F)(F)F)C1 (stereo unspecified) | 6.22
Nc1ncc(-c2cn[nH]c2)cc1-c1nc2ncc(Cl)cc2[nH]1 | 6.04
NC1CCN(Cc2ccc(-c3ccc(-c4nc5ccccc5[nH]4)s3)cc2)C1 (stereo unspecified) | 6.13
CC(Cc1ccc(NS(=O)(=O)c2ccc(CC(C)NCCc3cccc(Cl)c3)cc2)cc1)NCCc1cccc(Cl)c1 (stereo unspecified) | 6.11
COc1ccc(C(=O)N[C@@H](CC(C)C)C(=O)N[C@H](/C=N/NC(=O)c2ccccc2)CCc2ccccc2)cc1OCCN1CCOCC1 | 6.77
CCCNCc1ccc(-c2ccc(CN(CCOC)C(=O)CCCOCc3ccccc3)cc2)nc1 | 5.94
CN1CCCN(Cc2cccc(-c3ccc(NC(=O)c4ccc(Cl)cc4)cc3)c2)CC1 | 6.14
CCCCCCCN1CC[C@@H](CCCc2ccnc3ccc(OCCC4CCNCC4)cc23)[C@@H](CC)C1 | 6.21
CC(C)c1ccc(NC(=O)c2ccc(C(=O)NC3CCN(CC4CCCCC4)CC3)cc2)cc1 | 6.19
C[C@@H]1CN(c2cnn(Cc3cccc(NC(=O)Nc4ccc(-c5ccccc5)cc4)c3)c(=O)c2Cl)C[C@H](C)N1 | 6.47
O=C(NCCc1ccccc1)N(Cc1ccccc1-c1cccc(CNC2CCCC2)c1)C1CCN(Cc2ccccc2)CC1 | 6.08
CN(C)Cc1ccc(-c2cc3c(-c4ccc(CN(C)C)cc4)ccnc3[nH]2)cc1 | 6.05
O=C(O[C@H]1CN[C@H](C#Cc2cc3ncnc(Nc4ccc5c(ccn5S(=O)(=O)c5cccs5)c4)c3s2)C1)N1CCOCC1 | 5.96
NC1=NC(c2ccccc2)(c2ccccc2)C(=O)N1Cc1ccc(-c2cccnc2)cc1 | 6.15
CCNc1cc(C(=O)N[C@@H](Cc2ccccc2)[C@H](O)CNC(CC)c2cccc(Cl)c2)cc(N2CCCC2=O)c1 (stereo partly specified) | 7.52

SMILES | pIC50
Cc1cc(C)cc(NC(=S)NCCCCN2CCN(c3cccc(Cl)c3)CC2)c1 | 5.87
CCNc1cc(C(=O)N[C@@H](Cc2ccco2)[C@H](O)CNC2CCCCC2)cc(N2CCCCS2(=O)=O)c1 | 6.00
S=c1nc(-c2ccccc2)n2ccsc2n1 | 6.74
NC(N)=Nc1cccc(NC(=O)Nc2cccc(N=C(N)N)c2)c1 | 6.59
CCCCCCCN1CC[C@@H](CCCc2ccnc3ccc(OCC4CCCNC4)cc23)[C@@H](CC)C1 (stereo partly specified) | 6.21
Clc1cccnc1N1CCN(c2ncccc2Cl)CC1 | 6.82
CN(C)c1ccc(-c2csc(C(=O)NCC3CCN(Cc4cccc(C(F)(F)F)c4)C3)c2)cc1 (stereo unspecified) | 6.08
COc1cccc(-c2ccc3c(-c4cccc(S(C)(=O)=O)c4)cnc(N)c3c2)c1 | 6.06
CCn1ncc2c(N3CCCC3=O)cc(C(=O)N[C@@H](Cc3ccccc3)[C@H](O)CNC(C)(C)c3cccc(C(F)(F)F)c3)cc21 | 6.82
CC[C@H]1CN2CCc3cc(OC)c(OC)cc3[C@@H]2C[C@@H]1C[C@H]1NCCc2cc(OC)c(OC)cc21 | 6.68
CC(=O)Nc1ccc(CN2Cc3ccc(NC(=O)Nc4ccc(Oc5ccccc5)cc4)cc3C2)s1 | 6.04
CN1CCN(c2cc(-c3cccnc3)nc(-c3ccncc3)n2)CC1 | 6.26
CNCCCNCc1ccc(-c2ccc(F)c(Cl)c2)o1 | 6.12
CCN(CC)CCN(Cc1ccc(-c2ccc(C(F)(F)F)cc2)cc1)C(=O)Cn1c(CCc2c(F)cc(F)cc2F)nc(=O)c2ccccc21 | 5.98
Clc1ccc(Cl)c2[nH]c(CNCCCNc3nc4ccccc4[nH]3)cc12 | 6.80
CN(C(=O)OCc1ccccc1)C1CCC(CCN2CCC3(CC2)C(=O)NCN3c2cccc(C(F)(F)F)c2)(c2ccccc2)CC1 (stereo unspecified) | 5.93
NC(CC1CC(=O)N1CC(=O)O)C(=O)O (stereo unspecified) | 6.80
CC(=O)N(C)c1ccc(C(=O)Nc2cccc(-c3cccc(-c4nc5c(C)cccc5[nH]4)c3)c2)cc1 | 6.21
CCOc1ccc(C(C)NC(=O)c2ccc(OC)c(Br)c2)cc1OCC (stereo unspecified) | 6.15
CC(=O)CCc1ccc(OCCN(Cc2ccccc2C(F)(F)F)c2ccc(C#N)c(C(F)(F)F)c2)cc1 | 6.57
c1cc2c3c(cccc3c1)NC(CCCCCCCCC1=Nc3cccc4cccc(c34)N1)=N2 | 6.08
CN(C)CCCNc1ncnc2c1[nH]c1ccc(F)cc12 | 6.14
CC(CCCCC(=O)Nc1ccc(C(F)(F)F)cc1)NCC(O)c1cccc(Cl)c1 (stereo unspecified) | 6.55
